Assay results: ChEMBL document CHEMBL6074715, “Discovery of pyridine-based derivatives as FLT3 inhibitors for the treatment of acute myeloid leukemia” (Eur J Med Chem, 2025)
The source made the active and inactive calls. The rule behind the calls is not given here.

What was measured:
[1] = biological target: Platelet-derived growth factor receptor beta (Homo sapiens) (UniProt P09619); experiment: Inhibition of human PDGFRbeta at 1 uM by Eurofins kinase assay
[2] = biological target: Tyrosine-protein kinase ABL1 (Homo sapiens) (UniProt P00519); experiment: Inhibition of human ABL1 at 1 uM by Eurofins kinase assay
SBC-5 = experiment: Antiproliferative activity against human SBC-5 cells assessed as inhibition of cell growth measured after 72 hrs by Celltiter-glo luminescent cell viability assay; format: functional, cell-based; settings: SBC-5, 72 h
[3] = Toxicity in female NSG mouse assessed as effect on heart at 20 to 40 mg/kg, po measured after 21 days by H and E staining based analysis; format: organism-based; settings: in vivo, 504 h, dose 20-40 mg/kg, time 21 day
MOLM-13 [4] = experiment: Induction of apoptosis in human MOLM-13 cells assessed as viable cells at 3 uM measured after 48 hrs by annexin-V and PI staining based flow cytometry analysis (reference value: 88.7%); format: functional; settings: read-out: Activity
[5] = Oral bioavailability in Sprague-Dawley rat at 20 mg/kg measured upto 48 hrs by LC-MS/MS analysis; format: ADME, organism-based; settings: in vivo
[6] = Toxicity in female NSG mouse assessed as effect on spleen at 20 to 40 mg/kg, po measured after 21 days by H and E staining based analysis; format: organism-based; settings: in vivo, 504 h, dose 20-40 mg/kg, time 21 day
MOLM-13 [7] = experiment: Induction of cell cycle arrest in human MOLM-13 cells assessed as accumulation of cells at S phase at 3 uM measured after 48 hrs by PI staining based flow cytometry analysis (reference value: 45.3%); format: functional
MOLM-13 [8] = experiment: Induction of apoptosis in human MOLM-13 cells assessed as late apoptotic cells at 3 uM measured after 48 hrs by annexin-V and PI staining based flow cytometry analysis (reference value: 2.28%); format: functional
MOLM-13 [9] = experiment: Induction of apoptosis in human MOLM-13 cells assessed as late apoptotic cells at 0.3 uM measured after 48 hrs by annexin-V and PI staining based flow cytometry analysis (reference value: 2.28%); format: functional
[10] = Toxicity in female NSG mouse assessed as effect on body weight loss at 20 to 40 mg/kg, po measured after 21 days; format: organism-based; settings: in vivo, 504 h, dose 20-40 mg/kg, time 21 day
[11] = biological target: Mitogen-activated protein kinase 8 (Homo sapiens) (UniProt P45983); experiment: Inhibition of human JNK1 at 1 uM by Eurofins kinase assay
BaF3 = experiment: Antiproliferative activity against mouse BaF3 cells harbouring TEL-VEGFR2 assessed as inhibition of cell growth measured after 72 hrs by Celltiter-glo luminescent cell viability assay; format: functional, cell-based; settings: BaF3, 72 h
[12] = biological target: Tyrosine-protein kinase ZAP-70 (Homo sapiens) (UniProt P43403); experiment: Inhibition of human ZAP-70 at 1 uM by Eurofins kinase assay
MOLM-13 [13] = experiment: Induction of cell cycle arrest in human MOLM-13 cells assessed as accumulation of cells at S phase at 1 uM measured after 48 hrs by PI staining based flow cytometry analysis (reference value: 45.3%); format: functional
[14] = biological target: Platelet-derived growth factor receptor alpha (Homo sapiens) (UniProt P16234); experiment: Inhibition of human PDGFRalpha at 1 uM by Eurofins kinase assay
[15] = Half life in Sprague-Dawley rat at 5 mg/kg, iv measured upto 48 hrs by LC-MS/MS analysis; format: ADME, organism-based; settings: in vivo
[16] = biological target: Vascular endothelial growth factor receptor 3 (Homo sapiens, UniProt P35916); experiment: Inhibition of human FLT4 assessed as residual activity at 1 uM by Eurofins kinase assay relative to control
[17] = biological target: Aurora kinase A (Homo sapiens) (UniProt O14965); experiment: Inhibition of human AuroraA at 1 uM by Eurofins kinase assay
[18] = biological target: Macrophage colony-stimulating factor 1 receptor (Homo sapiens, UniProt P07333); experiment: Inhibition of FMS (unknown origin) preincubated for 10 mins followed by addition of peptide solution by caliper mobility shift assay
[19] = biological target: Serine/threonine-protein kinase WNK1 (Homo sapiens) (UniProt Q9H4A3); experiment: Inhibition of human WNK1 at 1 uM by Eurofins kinase assay
[20] = test system: Receptor-type tyrosine-protein kinase FLT3 (Homo sapiens), P36888 [D835Y]; experiment: Inhibition of human FLT3 D835Y mutant at 1 uM by Eurofins kinase assay
[21] = biological target: Inhibitor of nuclear factor kappa-B kinase subunit beta (Homo sapiens) (UniProt O14920); experiment: Inhibition of human IKKB at 1 uM by Eurofins kinase assay
[22] = test system: Mast/stem cell growth factor receptor Kit (Homo sapiens), P10721 [D816V]; experiment: Inhibition of human c-kit D816V mutant at 1 uM by Eurofins kinase assay
[23] = Cmax in Sprague-Dawley rat at 5 mg/kg, iv measured upto 48 hrs by LC-MS/MS analysis; format: ADME, organism-based; settings: in vivo
[24] = biological target: Serine/threonine-protein kinase PAK 4 (Homo sapiens) (UniProt O96013); experiment: Inhibition of human PAK4 at 1 uM by Eurofins kinase assay
[25] = AUC (0 to t) in Sprague-Dawley rat at 20 mg/kg, po measured upto 48 hrs by LC-MS/MS analysis; format: ADME, organism-based; settings: in vivo
MOLM-13 [26] = experiment: Induction of apoptosis in human MOLM-13 cells assessed as late apoptotic cells at 1 uM measured after 48 hrs by annexin-V and PI staining based flow cytometry analysis (reference value: 2.28%); format: functional
MOLM-13 [27] = experiment: Induction of cell cycle arrest in human MOLM-13 cells assessed as accumulation of cells at G1 phase at 0.3 uM measured after 48 hrs by PI staining based flow cytometry analysis (reference value: 42.8%); format: functional
MOLM-13 [28] = experiment: Induction of cell cycle arrest in human MOLM-13 cells assessed as accumulation of cells at S phase at 0.3 uM measured after 48 hrs by PI staining based flow cytometry analysis (reference value: 45.3%); format: functional
MOLM-13 [29] = experiment: Induction of cell cycle arrest in human MOLM-13 cells assessed as accumulation of cells at G2 phase at 1 uM measured after 48 hrs by PI staining based flow cytometry analysis (reference value: 12.5%); format: functional
[30] = biological target: Insulin-like growth factor 1 receptor (Homo sapiens) (UniProt P08069); experiment: Inhibition of human IGF-1R at 1 uM by Eurofins kinase assay
[31] = AUC (0 to t) in Sprague-Dawley rat at 5 mg/kg, iv measured upto 48 hrs by LC-MS/MS analysis; format: ADME, organism-based; settings: in vivo
MOLM-13 [32] = experiment: Antitumor activity against human MOLM-13 cells xenografted in female NSG mouse model assessed as delay in tumor growth at 20 to 40 mg/kg/day, po measured after 21 days; format: functional, organism-based; settings: dose 20-40 mg/kg/day, time 21.0 day
MOLM-13 [33] = experiment: Induction of apoptosis in human MOLM-13 cells assessed as viable cells at 0.3 uM measured after 48 hrs by annexin-V and PI staining based flow cytometry analysis (reference value: 88.7%); format: functional; settings: read-out: Activity
[34] = biological target: Tyrosine-protein kinase Lck (Homo sapiens) (UniProt P06239); experiment: Inhibition of human LCK at 1 uM by Eurofins kinase assay
U-87 MG = experiment: Antiproliferative activity against human U-87 MG cells assessed as inhibition of cell growth measured after 72 hrs by Celltiter-glo luminescent cell viability assay; format: functional, cell-based, U-87MG ATCC

Sequence of Macrophage colony-stimulating factor 1 receptor (P07333 whole entry): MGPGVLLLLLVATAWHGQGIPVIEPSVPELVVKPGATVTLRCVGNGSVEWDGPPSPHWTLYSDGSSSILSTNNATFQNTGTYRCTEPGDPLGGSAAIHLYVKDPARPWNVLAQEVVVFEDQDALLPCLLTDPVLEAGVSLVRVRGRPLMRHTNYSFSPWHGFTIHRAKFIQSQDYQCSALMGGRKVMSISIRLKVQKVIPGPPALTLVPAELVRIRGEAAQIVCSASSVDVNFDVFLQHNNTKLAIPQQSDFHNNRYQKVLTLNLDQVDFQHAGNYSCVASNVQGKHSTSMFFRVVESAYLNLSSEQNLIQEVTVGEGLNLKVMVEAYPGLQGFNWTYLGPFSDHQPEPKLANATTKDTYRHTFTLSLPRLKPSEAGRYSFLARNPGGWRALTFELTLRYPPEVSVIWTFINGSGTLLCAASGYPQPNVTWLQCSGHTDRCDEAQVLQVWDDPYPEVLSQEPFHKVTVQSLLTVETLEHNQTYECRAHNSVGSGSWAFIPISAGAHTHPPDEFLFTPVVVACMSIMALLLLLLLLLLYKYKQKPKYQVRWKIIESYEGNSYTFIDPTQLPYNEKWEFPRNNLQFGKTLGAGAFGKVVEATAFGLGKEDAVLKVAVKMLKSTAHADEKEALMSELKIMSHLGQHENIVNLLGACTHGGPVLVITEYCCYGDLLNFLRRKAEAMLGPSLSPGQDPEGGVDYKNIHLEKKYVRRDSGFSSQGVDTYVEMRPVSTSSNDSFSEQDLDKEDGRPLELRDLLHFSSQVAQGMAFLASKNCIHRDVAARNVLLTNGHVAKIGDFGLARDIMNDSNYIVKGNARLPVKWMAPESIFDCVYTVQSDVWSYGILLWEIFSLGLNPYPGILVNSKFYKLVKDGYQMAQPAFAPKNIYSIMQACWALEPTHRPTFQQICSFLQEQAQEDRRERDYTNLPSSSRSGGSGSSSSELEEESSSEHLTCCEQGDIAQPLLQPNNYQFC
Sequence of Aurora kinase A (Homo sapiens) (O14965 whole entry): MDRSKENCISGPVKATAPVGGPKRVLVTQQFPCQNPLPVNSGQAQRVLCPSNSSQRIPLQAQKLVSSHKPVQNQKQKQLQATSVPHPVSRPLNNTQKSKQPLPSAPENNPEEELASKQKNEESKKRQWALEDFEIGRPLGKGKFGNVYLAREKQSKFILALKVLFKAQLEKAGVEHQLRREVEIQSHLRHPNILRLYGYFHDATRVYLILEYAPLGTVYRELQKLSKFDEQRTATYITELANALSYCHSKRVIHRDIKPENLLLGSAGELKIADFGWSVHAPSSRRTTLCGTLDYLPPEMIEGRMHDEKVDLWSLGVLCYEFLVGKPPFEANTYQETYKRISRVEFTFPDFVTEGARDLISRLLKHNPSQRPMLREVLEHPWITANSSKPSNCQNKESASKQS
Sequence of Insulin-like growth factor 1 receptor (Homo sapiens) (P08069 31-736 limits assumed): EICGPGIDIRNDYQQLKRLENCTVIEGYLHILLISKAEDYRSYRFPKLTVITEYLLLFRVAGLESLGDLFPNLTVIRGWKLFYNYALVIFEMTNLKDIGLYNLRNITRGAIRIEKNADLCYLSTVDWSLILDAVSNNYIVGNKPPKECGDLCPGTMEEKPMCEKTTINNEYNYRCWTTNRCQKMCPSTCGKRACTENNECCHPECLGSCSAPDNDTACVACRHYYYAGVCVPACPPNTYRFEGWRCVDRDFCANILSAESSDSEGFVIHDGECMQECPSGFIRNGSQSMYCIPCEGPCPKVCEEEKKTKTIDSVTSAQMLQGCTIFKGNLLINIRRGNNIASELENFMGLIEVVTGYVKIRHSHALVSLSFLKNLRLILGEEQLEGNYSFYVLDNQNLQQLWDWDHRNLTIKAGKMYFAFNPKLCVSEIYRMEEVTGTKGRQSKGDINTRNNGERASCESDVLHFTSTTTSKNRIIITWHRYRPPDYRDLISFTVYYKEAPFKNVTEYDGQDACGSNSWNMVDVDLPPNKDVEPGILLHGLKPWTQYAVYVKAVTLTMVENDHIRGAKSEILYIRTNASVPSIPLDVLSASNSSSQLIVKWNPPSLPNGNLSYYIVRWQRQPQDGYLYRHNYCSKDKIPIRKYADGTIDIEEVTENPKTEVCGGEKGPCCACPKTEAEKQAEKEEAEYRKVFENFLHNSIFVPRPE
Sequence of Insulin-like growth factor 1 receptor (Homo sapiens) (P08069 741-1367 limits assumed): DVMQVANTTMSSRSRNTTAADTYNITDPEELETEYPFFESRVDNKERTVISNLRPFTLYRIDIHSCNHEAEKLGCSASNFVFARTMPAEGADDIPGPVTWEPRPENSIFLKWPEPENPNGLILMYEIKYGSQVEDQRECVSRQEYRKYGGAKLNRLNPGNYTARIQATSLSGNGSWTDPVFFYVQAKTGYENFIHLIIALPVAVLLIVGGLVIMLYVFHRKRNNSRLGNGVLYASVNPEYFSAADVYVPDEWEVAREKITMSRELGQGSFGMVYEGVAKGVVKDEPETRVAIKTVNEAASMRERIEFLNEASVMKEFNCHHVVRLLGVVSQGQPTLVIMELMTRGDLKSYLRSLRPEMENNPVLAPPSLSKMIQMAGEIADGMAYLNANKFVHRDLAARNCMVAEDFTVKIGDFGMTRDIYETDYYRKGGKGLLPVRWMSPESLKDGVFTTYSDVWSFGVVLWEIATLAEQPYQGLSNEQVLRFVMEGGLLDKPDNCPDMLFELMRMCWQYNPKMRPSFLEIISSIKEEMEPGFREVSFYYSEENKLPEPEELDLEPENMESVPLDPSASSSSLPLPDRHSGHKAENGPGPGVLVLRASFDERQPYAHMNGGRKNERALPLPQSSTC
Sequence of Serine/threonine-protein kinase WNK1 (Homo sapiens) (Q9H4A3 whole entry, looked up): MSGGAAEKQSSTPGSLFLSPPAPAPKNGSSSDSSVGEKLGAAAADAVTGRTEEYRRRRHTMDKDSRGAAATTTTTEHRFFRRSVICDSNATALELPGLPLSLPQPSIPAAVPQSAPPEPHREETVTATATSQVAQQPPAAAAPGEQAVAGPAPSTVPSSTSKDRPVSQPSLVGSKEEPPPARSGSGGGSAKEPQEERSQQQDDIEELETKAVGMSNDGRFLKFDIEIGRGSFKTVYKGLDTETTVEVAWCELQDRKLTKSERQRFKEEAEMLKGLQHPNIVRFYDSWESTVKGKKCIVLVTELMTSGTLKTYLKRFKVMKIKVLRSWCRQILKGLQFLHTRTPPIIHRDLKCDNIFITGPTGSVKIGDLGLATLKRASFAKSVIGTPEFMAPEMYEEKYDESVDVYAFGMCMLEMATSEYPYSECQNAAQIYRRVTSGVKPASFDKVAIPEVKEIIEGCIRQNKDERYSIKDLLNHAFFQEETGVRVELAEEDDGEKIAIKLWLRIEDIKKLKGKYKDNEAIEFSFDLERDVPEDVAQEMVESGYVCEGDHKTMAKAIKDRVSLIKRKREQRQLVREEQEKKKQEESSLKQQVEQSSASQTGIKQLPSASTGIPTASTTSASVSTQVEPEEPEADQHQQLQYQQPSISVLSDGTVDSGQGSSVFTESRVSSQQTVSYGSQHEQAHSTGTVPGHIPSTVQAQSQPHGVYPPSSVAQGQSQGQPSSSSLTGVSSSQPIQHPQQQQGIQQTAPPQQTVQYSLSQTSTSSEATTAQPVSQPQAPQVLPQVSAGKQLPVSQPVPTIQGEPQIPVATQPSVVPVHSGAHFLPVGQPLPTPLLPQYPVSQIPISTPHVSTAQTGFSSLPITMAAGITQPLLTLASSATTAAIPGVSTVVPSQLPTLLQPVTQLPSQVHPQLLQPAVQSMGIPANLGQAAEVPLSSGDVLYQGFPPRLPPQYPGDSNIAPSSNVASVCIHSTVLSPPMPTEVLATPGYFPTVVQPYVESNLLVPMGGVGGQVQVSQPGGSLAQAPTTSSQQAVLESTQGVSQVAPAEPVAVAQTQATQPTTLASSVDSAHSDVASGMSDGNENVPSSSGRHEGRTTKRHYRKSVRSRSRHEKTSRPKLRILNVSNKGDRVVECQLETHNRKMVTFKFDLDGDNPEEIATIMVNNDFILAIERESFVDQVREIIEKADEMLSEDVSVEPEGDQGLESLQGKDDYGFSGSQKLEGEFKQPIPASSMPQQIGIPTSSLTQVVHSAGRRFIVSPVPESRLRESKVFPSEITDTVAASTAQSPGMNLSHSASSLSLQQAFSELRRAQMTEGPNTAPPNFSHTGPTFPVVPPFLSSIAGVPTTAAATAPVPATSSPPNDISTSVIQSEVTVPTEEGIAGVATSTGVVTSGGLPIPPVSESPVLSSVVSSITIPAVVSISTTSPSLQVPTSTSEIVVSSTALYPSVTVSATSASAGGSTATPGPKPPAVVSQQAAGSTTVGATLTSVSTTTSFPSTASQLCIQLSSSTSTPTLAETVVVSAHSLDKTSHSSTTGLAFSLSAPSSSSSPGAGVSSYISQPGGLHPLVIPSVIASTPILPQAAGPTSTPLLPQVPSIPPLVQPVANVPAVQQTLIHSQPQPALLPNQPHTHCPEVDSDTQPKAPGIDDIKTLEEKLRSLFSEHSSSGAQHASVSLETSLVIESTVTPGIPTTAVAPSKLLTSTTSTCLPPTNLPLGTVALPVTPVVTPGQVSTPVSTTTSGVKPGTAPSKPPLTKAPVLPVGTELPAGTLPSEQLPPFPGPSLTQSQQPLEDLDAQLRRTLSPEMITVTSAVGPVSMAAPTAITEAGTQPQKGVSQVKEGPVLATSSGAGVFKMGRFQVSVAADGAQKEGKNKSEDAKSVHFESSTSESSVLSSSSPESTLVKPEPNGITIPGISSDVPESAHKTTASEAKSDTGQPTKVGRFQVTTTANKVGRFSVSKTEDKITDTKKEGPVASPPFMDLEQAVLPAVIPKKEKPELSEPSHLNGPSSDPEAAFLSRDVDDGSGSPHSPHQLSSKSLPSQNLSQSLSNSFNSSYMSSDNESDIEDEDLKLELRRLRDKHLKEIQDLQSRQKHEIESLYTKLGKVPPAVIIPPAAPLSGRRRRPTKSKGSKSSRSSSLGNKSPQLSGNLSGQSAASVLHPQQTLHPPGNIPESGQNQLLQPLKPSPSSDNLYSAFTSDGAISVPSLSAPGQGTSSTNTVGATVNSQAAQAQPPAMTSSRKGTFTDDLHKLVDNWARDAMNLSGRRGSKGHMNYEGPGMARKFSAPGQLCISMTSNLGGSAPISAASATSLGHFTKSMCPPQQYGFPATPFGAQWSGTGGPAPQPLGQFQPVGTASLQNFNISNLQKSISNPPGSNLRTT

For `O=C(Nc1ccc(Oc2ccnc(NC(=O)N3CC(O)C3)c2)c(F)c1)c1cn(-c2cccnc2)nn1`, the inhibition [1] was “inactive”, the inhibition [2] was “inactive” and the IC50 (SBC-5) was greater than 30 µM. The Activity [3] was “Non-toxic”, the viability at 3 µM (MOLM-13 [4]) was 50.6% and the bioavailability [5] was 19.2%. The Activity [6] was “Non-toxic”, the Activity (MOLM-13 [7]) was 4.87% and the Activity (MOLM-13 [8]) was 11%. The Activity (MOLM-13 [9]) was 6.54%, the Activity [10] was “Non-toxic” and the inhibition [11] was “inactive”. The IC50 (BaF3) was 290 nM, the inhibition [12] was “inactive” and the Activity (MOLM-13 [13]) was 3.57%. For the same compound, the inhibition [14] was “inactive”, the half-life [15] was 148 min and the Activity [16] was 22%. For the same compound, the inhibition [17] was “inactive”, the IC50 [18] was 131 nM and the inhibition [19] was “inactive”. For the same compound, the inhibition [20] was “inactive”, the inhibition [21] was “inactive” and the inhibition [22] was “inactive”. For the same compound, the Cmax [23] was 26900 ng/mL, the inhibition [24] was “inactive” and the AUC(0-t) at 48 h [25] was 45600 ng·h/mL. The Activity (MOLM-13 [26]) was 9.44%, the Activity (MOLM-13 [27]) was 79.4% and the Activity (MOLM-13 [28]) was 14%. The Activity (MOLM-13 [29]) was 4.33%, the inhibition [30] was “inactive” and the AUC(0-t) at 48 h [31] was 59300 ng·h/mL. The Activity (MOLM-13 [32]) was “Active”, the viability at 0.3 µM (MOLM-13 [33]) was 68.4% and the inhibition [34] was “inactive”. The IC50 (U-87 MG) was greater than 30 µM.
